Patent US20160367511A1, “EFFICACY OF DIETARY DHA-PHOSPHOLIPID FOR BRAIN DHA AND DPA ACCRETION IN NEONATES” (N.V. NUTRICIA, priority 2013, published 2016)

Conditions: both, Yorkshire x Landrace cross sows bred with Hampshire boars, pig, in vivo, 6 days
Description: The TAG tracer (TAG-^13C-DHA) had ^13C-DHA in the sn-2 position with unlabeled 16:0 in the sn-1 and sn-3 positions. The tracer representative for PL was phosphatidylcholine (PC) with ^13C-DHA in the sn-2 position and unlabeled 16:0 in the sn-1 position (PC-^13C-DHA).
Sows (Yorkshire and Landrace cross) were bred with Hampshire boars. After birth, piglets were left to nurse with the sow for at least 48 hours. Twenty piglets, 2 to 4 days of age, were chosen for the study based on the following criteria: weight (about 2.0 kg), gender (10 males and 10 females), health (active and apparently normal, and not the smallest animal in the litter) and sow. Piglets were given a unique number/color combination identifier and then were transported to Large Animal Research and Teaching Unit (LARTU), Cornell University.
At the study site, piglets were housed in individual stainless steel cages and were placed on a single fully balanced commercially available young farm animal milk replacer formula immediately upon arrival.
On day 16 of life, 16 robust piglets were assigned to two dosing groups balanced with respect to gender, weight, and age but otherwise distributed randomly. Group PC were orally dosed with PC-^13C-DHA; Group TG were dosed with TG-^13C-DHA.
Doses were prepared by dissolving CHC13 solutions of PC-^13C-DHA or TAG-^13C-DHA in about 1 mL of refined olive oil and driving off the CHCl3 by gentle heating under flowing dry N2 over 4 hours. The resulting olive oils were carefully placed on the surface of a few mL of reconstituted piglet formula and sonicated until homogeneous. The resulting labeled formula was split into 1 to 2 mL aliquots gravimetrically and administered orally to piglets, followed by several washes of the vials containing the labeled formulas, at the beginning of a feed. Care was taken to insure all of the labeled formula and the washes, consisting of a total of up to 10 mL, were swallowed by the piglets. Piglets were then provided with their normal meal of 500 mL milk replacer which they routinely consume completely. Doses to piglets corresponded to about 20 mg ^13C-DHA delivered in PC and 86 mg of ^13C-DHA delivered in TAG.
Six days after the dose, and on a single day after 20 days of formula, all piglets were euthanized by exsanguination under anesthesia. Blood for fatty acid analysis was collected in tubes with EDTA and spun to prepare red blood cells. […] A piece was immediately used for preparation of synaptosomes, and the remaining grey matter was flash frozen for fatty acid analysis. Retina, heart, liver, biceps femoris muscle and kidney were also harvested, and all tissues were flash frozen and stored at −80° C. until prepared for analysis. […]

Structure (SMILES): CC/C=C\C/C=C\C/C=C\C/C=C\C/C=C\C/C=C\CCC(=O)O [^13C-DHA, docosahexaenoic acid]
- 13C-DHA relative to 13C-DPA in grey matter: about 8 fold
- 13C-DHA relative to 13C-DPA in liver: 40 fold
- 13C-DHA relative to DPAn-3 in retina: 6.3 fold
- liver 13C-DHA relative to grey matter 13C-DHA: about 20 fold
